Measured values: the NIST ThermoML archive (doi:10.1016/j.jct.2011.05.017)
Numbers after ± are expanded uncertainties.

Assay: xn = mol fraction of the nth substance listed
Details: 298.15 K, 101 kPa, Liquid, Vibrating tube method

CCC(C)Cl (stereo not drawn) [2-chlorobutane] + CC(C)CO
Details	mass density [kg/m3]
x1 = 0.0579	801.82 ± 0.24
x1 = 0.1152	805.77 ± 0.24
x1 = 0.2274	813.51 ± 0.24
x1 = 0.3166	819.67 ± 0.24
x1 = 0.4235	827.01 ± 0.24
x1 = 0.4896	831.53 ± 0.24
x1 = 0.5564	836.12 ± 0.24
x1 = 0.6097	839.79 ± 0.24
x1 = 0.6872	845.08 ± 0.24
x1 = 0.7523	849.59 ± 0.24
x1 = 0.809	853.54 ± 0.24
x1 = 0.8487	856.33 ± 0.24
x1 = 0.8975	859.77 ± 0.24
x1 = 0.9293	862.05 ± 0.24
x1 = 0.9638	864.55 ± 0.24
x1 = 1	867.21 ± 0.24

CCC(C)Cl (stereo not drawn) [2-chlorobutane] + CCCCOC(C)=O
Details	mass density [kg/m3]
x1 = 0.0787	875.55 ± 0.24
x1 = 0.1618	874.83 ± 0.24
x1 = 0.233	874.2 ± 0.24
x1 = 0.325	873.36 ± 0.24
x1 = 0.3861	872.8 ± 0.24
x1 = 0.4512	872.2 ± 0.24
x1 = 0.506	871.7 ± 0.24
x1 = 0.5902	870.94 ± 0.24
x1 = 0.6656	870.27 ± 0.24
x1 = 0.7352	869.65 ± 0.24
x1 = 0.7862	869.19 ± 0.24
x1 = 0.8516	868.6 ± 0.24
x1 = 0.8961	868.19 ± 0.24
x1 = 0.9458	867.73 ± 0.24
x1 = 1	867.21 ± 0.24

CC(C)CO [2-methyl-1-propanol] + CCC(C)Cl
Details	mass density [kg/m3]
x2 = 0	797.82 ± 0.24

CC(C)CO [2-methyl-1-propanol] + CCCCOC(C)=O
Details	mass density [kg/m3]
x2 = 0	797.82 ± 0.24

CCCCOC(C)=O [butyl ethanoate] + CC(C)CO
Details	mass density [kg/m3]
x1 = 0.0589	802.41 ± 0.24
x1 = 0.1065	806.12 ± 0.24
x1 = 0.1907	812.7 ± 0.24
x1 = 0.272	819.03 ± 0.24
x1 = 0.3894	828.2 ± 0.24
x1 = 0.4427	832.34 ± 0.24
x1 = 0.5277	838.96 ± 0.24
x1 = 0.607	845.14 ± 0.24
x1 = 0.6829	851.07 ± 0.24
x1 = 0.7405	855.58 ± 0.24
x1 = 0.8166	861.57 ± 0.24
x1 = 0.87	865.79 ± 0.24
x1 = 0.9312	870.67 ± 0.24
x1 = 1	876.2 ± 0.23

CCCCOC(C)=O [butyl ethanoate] + CCC(C)Cl
Details	mass density [kg/m3]
x2 = 0	876.2 ± 0.23
